This is an account of results in publication PMC6602202, “Enteroendocrine peptides regulate feeding behavior via controlling intestinal contraction of the silkworm Bombyx mori” (PLoS ONE, 2019).

One assay has as its system ileum. As to the kind of experiment: Spontaneous contraction of the ileum in dissected open larvae. Details: species or system Bombyx mori. Here is the method: (§1) The opened head and abdominal portion of 2-day-old fifth-instar larvae (fed ad libitum and non-fed for 16 h) were washed twice with B. mori Ringer’s solution and incubated for 3 min at 27°C to stabilize the movement. After incubation, the contractile movements of the larval foregut and hindgut, particularly the spontaneous contraction of the pharynx and ileum (predominantly contracting area in hindgut) were observed and recorded using a digital microscope USB2.0 DigiScope II v2^TM (CHRONOS, Taipei, Taiwan). 100 μL of B. mori Ringer’s solution was added to the examined gut at 60 s after starting recording. Furthermore, 100 μL of B. mori Ringer’s solution (vehicle control) and 100 μL peptide-containing solution (10^−9–10^−5 M of peptides dissolved in B. mori Ringer’s solution) were exposed over gut at 120 s after a recording start. The contractile movements were analyzed using ImageJ software (https://imagej.net/Fiji) with the Optic flow plug-in (Gaussian window MSE). The direction of contractile movement was represented by the color and arrows described in the ‘Direction’ map. The position of the lines used for the kymograph analyses (x-y, z-w) were determined by Optic flow analyses. The waveform of the kymographs, corresponding to the visible contractions in the recorded movies, were quantified and converted to myograms. The number of contractions in 60 s was defined as the ‘contraction frequency’. Invisible contractions in the recorded movie and extremely small amplitudes in the myograms were considered as no significant contractions. The evaluation of visible contraction was defined by giving a threshold at the half length of the observed amplitude. The effect of synthetic peptides was represented by the ratio of the ‘contraction frequency’ at 60–120 s to 120–180 s (%) due to the extendedly various frequencies by individuality; the pharynx (30-40/60s) and hindgut (20-40/60s). This methodology by kymograph is substantially corresponding to the previously used assays for intestinal contraction. […]

The subject of the next assay is BNGR-A16. The experiment in a line: aequorin-based bioluminescent calcium assay, CHO cells expressing BNGR-A16. Format: cell-based, Bombyx mori. Conditions: aequorin luminescence 20 s, triplicates, three experiments. Here is the method: Activity of the BNGR-A5 and -16 receptors were analyzed using Chinese hamster ovary (CHO) cells transiently transfected with plasmids for expression of each BNGR, calcium-sensitive reporter aequorin and chimeric G protein that couple with receptor activation to an intracellular Ca^2+-increase independent of the endogenous receptor signaling cascade. The entire open reading frames of BNGR-A5 and -16 were cloned into pcDNA3.1(+) vector (Invitrogen) with a Kozak translation initiation sequence incorporated at 5´end. Plasmids for codon optimized aequorin and chimeric G proteins were used as described previously. […]
The transfected cells were detached using PBS supplemented with 0.2% EDTA and rinsed of the culture plates with the assay medium—phenol red free DMEM/F12 with L-glutamine and 15 mM HEPES (PAN Biotech, Wimborne, Dorset, UK), 0.1% BSA (Sigma-Aldrich Co. LLC.) and 1% penicillin/streptomycin (Life Technologies). […] Emitted luminescence signal corresponding to the ligand-induced intracellular Ca^2+ release was recorded for 20 s using the GloMax-Multi+ Detection System (Promega). […]

In the next assay the test system is foregut and hindgut. The experiment in a line: Wash-out of contraction inhibition, isolated gut. Details: species or system Bombyx mori. Conditions: washing with the vehicle without the ligands. As for the experimental part: as §1, with “The direction of contractile movement was represented by the color and arrows described in the ‘Direction’ map.” left out, “The number of contractions in 60 s was defined as the ‘contraction frequency’.” left out, “contractions.” for “contractions. The evaluation of visible contraction was defined by giving a threshold at the half length of the observed amplitude. The effect of synthetic peptides was represented by the ratio of the ‘contraction frequency’ at 60–120 s to 120–180 s (%) due to the extendedly various frequencies by individuality; the pharynx (30-40/60s) and hindgut (20-40/60s). This methodology by kymograph is substantially corresponding to the previously used assays for intestinal contraction.”

In assay [1] the test system is foregut, midgut and hindgut. Conditions: other insect species; 48 (foregut), 27, 49 (midgut), 50, 51 (hindgut); cited from earlier work. From the text: AT was originally isolated from extracts of heads of pharate adult tobacco hornworm, Manduca sexta as an allatoregulatory peptide. […] Consistently, it is possible in other insect species that ...
In the next assay the test system is intestinal contractions. Conditions: cited from earlier work. The text has this: The myoinhibitory activities of AT and GSRYa-1 and -2 in the foregut (pharynx and esophagus) and hindgut (ileum) (Figs 5E, 5F and 6E) seem to be linked to the delay in feeding initiation in B. mori larvae (Figs 1D and 6B).
The subject of assay [2] is foregut of Lacanobia oleracea. Conditions: cited from earlier work. From the text: (§2) AT-producing EEs (Fig 2C and 2D) and GSRYamide-producing EEs (Fig 2E and 2F) also have the potential to deliver secretory granules containing peptidyl factors to the hemocoel side through a cellular membrane. Those EEs have similar cellular morphology to EEs releasing other arthropod neuropeptide CCAP (Crustacean cardioactive peptide) observed in the American cockroac ...

In assay [3] the test system is foregut of Helicoverpa armigera. Conditions: cited from earlier work.
Source text: as §2

With allatotropin, the “contraction of ileum (movie)” value in the assay on ileum (10^−6 M exposed at 120 s, larvae fed ad libitum) is given as “the contraction of ileum was inhibited”. Also, the “relative frequency of contraction, ileum, fed ad libitum” value in the assay with ileum (larvae fed ad libitum, 10^−9–10^−5 M, 27°C, 60–120 s vs 120–180 s, n = 5) is recorded as “decreased relative frequency of contraction”. In addition, the “relative frequency of contraction, ileum, non-fed” value in the assay on ileum (larvae non-fed for 16 h, 10^−9–10^−5 M, 27°C, n = 5) is recorded as “decreased the frequency”. Besides, the “response, BNGR-A16” value in the assay with BNGR-A16 was “response of BNGR-A5 (Fig 3 an arrow) as well as BNGR-A16 to AT”. For the same substance, in the assay on foregut and hindgut, the “reversibility of inhibition on washing” value was “did not resume even after washing”. For the same substance, the “myoregulatory activity on foregut, midgut and hindgut” value in assay [1] is on record as “myoregulatory activities”. Also, the “effect on intestinal contractions, other Lepidopteran species” value in the assay with intestinal contractions is reported as “stimulatory effect”. Moreover, the “effect on spontaneous contraction of the foregut, L. oleracea” value in assay [2] is listed as “regulate spontaneous contraction of the foregut”. Also, the “effect on spontaneous contraction of the foregut, H. armigera” value in assay [3] is on record as “regulate spontaneous contraction of the foregut”.
